ChEMBL document CHEMBL4152303, “Structure-activity relationships of imidazothiazinones and analogs as antagonists of the cannabinoid-activated orphan G protein-coupled receptor GPR18” (Eur J Med Chem, 2018)

Columns and labels:
Cannabinoid receptor 1 = Cannabinoid receptor 1 (Homo sapiens, UniProt P21554); test: Displacement of [3H]CP55940 from recombinant human CB1 receptor expressed in CHO cell membranes after 2 hrs by liquid scintillation counting method; details: for inhibition: concentration not given here
Cannabinoid receptor 2 = Cannabinoid receptor 2 (Homo sapiens, UniProt P34972); test: Displacement of [3H]CP55940 from recombinant human CB2 receptor expressed in CHO cell membranes after 2 hrs by liquid scintillation counting method; details: for inhibition: concentration not given here
[1] = target: T1, N-arachidonyl glycine receptor (Homo sapiens, UniProt Q14330); test: (§1) Antagonist activity at recombinant human GPR18 expressed in CHO cells assessed as inhibition of delta9-THC-induced beta-arrestin recruitment preincubated for 60 mins followed by delta9-THC addition for 90 mins measured for 1 sec by luminescence assay; type: functional, cell-based
T1 sequence (Q14330 whole entry): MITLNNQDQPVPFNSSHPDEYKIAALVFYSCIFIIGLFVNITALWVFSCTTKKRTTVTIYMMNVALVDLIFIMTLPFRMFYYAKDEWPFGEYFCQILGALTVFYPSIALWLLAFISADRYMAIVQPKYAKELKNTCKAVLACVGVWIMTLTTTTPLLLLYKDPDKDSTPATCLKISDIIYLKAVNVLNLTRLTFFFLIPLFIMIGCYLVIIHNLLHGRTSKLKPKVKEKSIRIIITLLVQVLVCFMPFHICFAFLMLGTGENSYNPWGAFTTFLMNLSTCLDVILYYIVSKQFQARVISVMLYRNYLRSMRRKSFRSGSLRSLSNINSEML

[2] = target: T2, N-arachidonyl glycine receptor (Homo sapiens) (UniProt Q14330); test: as §1; type: functional, cell-based
T2 sequence (whole entry): T1 sequence (Q14330 whole entry)

[3] = target: T1, N-arachidonyl glycine receptor; test: (§2) Agonist activity at recombinant human GPR18 expressed in CHO cells assessed as increase in beta-arrestin recruitment incubated for 60 mins measured for 1 sec by luminescence assay; type: functional, cell-based
[4] = target: T2, N-arachidonyl glycine receptor (Homo sapiens); test: as §2; type: functional, cell-based
[5] = target: T3, G-protein coupled receptor 55 (Homo sapiens, UniProt Q9Y2T6); test: Antagonist activity at recombinant human GPR55 expressed in CHO cells assessed as inhibition of lysophosphatidylinositol-induced beta-arrestin recruitment preincubated for 60 mins followed by lysophosphatidylinositol addition for 90 mins measured for 1 sec by luminescence assay; type: functional, cell-based
[6] = target: T3, G-protein coupled receptor 55; test: Agonist activity at recombinant human GPR55 expressed in CHO cells assessed as increase in beta-arrestin recruitment incubated for 60 mins measured for 1 sec by luminescence assay; type: functional, cell-based

Sequence of Cannabinoid receptor 1 (P21554 whole entry): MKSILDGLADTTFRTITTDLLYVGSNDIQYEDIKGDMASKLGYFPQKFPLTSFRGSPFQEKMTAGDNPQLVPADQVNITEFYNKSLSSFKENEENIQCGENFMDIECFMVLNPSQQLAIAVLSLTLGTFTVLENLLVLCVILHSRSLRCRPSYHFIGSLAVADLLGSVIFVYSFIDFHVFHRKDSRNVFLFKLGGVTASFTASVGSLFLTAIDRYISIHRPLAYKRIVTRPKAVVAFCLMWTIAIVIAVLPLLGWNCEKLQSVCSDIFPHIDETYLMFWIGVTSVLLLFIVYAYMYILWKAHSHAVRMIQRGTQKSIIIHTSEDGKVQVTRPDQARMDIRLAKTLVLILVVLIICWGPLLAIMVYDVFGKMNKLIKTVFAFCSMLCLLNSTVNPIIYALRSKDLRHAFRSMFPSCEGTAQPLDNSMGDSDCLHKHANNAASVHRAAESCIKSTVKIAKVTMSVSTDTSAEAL
T3 sequence (Q9Y2T6 whole entry): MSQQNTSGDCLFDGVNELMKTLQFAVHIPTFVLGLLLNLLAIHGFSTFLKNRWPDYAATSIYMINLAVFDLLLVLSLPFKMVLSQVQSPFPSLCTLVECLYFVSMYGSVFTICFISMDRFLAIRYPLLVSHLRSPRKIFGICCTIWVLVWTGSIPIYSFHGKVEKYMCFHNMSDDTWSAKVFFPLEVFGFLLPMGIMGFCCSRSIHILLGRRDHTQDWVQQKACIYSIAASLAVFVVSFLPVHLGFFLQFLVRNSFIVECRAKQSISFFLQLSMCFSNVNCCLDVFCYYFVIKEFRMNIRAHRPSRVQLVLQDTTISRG
Sequence of Cannabinoid receptor 2 (P34972 whole entry): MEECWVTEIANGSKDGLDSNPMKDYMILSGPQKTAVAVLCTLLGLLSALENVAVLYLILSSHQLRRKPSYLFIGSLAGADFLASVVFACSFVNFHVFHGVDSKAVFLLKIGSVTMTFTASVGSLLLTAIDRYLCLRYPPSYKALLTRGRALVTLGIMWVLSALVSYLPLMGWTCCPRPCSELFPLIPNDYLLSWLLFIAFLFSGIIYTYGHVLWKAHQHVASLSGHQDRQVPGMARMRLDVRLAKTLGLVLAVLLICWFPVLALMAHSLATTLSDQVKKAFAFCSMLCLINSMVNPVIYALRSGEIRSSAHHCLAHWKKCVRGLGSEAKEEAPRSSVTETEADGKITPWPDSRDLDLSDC

Imax (Cannabinoid receptor 2) | Structure (SMILES) | Ki (Cannabinoid receptor 1) | inhibition (Cannabinoid receptor 1) | Ki (Cannabinoid receptor 2) | inhibition (Cannabinoid receptor 2) | IC50 [1] | Imax [2] | EC50 [3] | %max [4] | IC50 [5] | Imax [5] | %max [6] | EC50 [6] | inhibition [2] | Imax (Cannabinoid receptor 1)
 | Cc1ccc(CSC2=N/C(=C\c3cccc(OCc4ccc(Cl)cc4)c3)C(=O)N2)cc1 | > 10 µM | 38% | > 10 µM | 22% | > 10 µM | 0% | > 10 µM | 4% | > 10 µM | 48% | -12% | > 10 µM |  | 
 | O=C1/C(=C/c2cccc(OCCCOc3ccc(Cl)cc3)c2)N=C2SCCCN12 | > 10 µM | 18% | > 10 µM | -2% | 3.25 µM | 113% | > 10 µM | -16% | > 10 µM | 38% | -36% | > 10 µM |  | 
 | Cc1cccc(C)c1OCCCCCCOc1cccc(/C=C2\N=C3SCCCN3C2=O)c1 | > 10 µM | 13% | > 10 µM | 46% | 10 µM |  | > 10 µM | 3% | > 10 µM | 32% | 33% | > 10 µM | 55% | 
 | CSC1=N/C(=C\c2cccc(OCc3ccc(Cl)cc3)c2)C(=O)N1C | > 10 µM | 19% | > 10 µM | 24% | > 10 µM | 23% | > 10 µM | -2% | > 10 µM | 35% | -2% | > 10 µM |  | 
 | O=C1NC(SCc2ccc(F)cc2)=N/C1=C\c1cccc(OCc2ccc(Cl)cc2)c1 | > 10 µM | 42% | > 10 µM | 19% | > 10 µM | 27% | > 10 µM | 23% | > 10 µM | 44% | -21% | > 10 µM |  | 
 | O=C1/C(=C/c2cccc(OCc3ccc(Br)cc3)c2)N=C2SCCCN12 | > 10 µM | 4% | > 10 µM | 4% | 1.73 µM | 74% | > 10 µM | -9% | 45.8 µM | 116% | -19% | > 10 µM |  | 
 | Cc1ccc(CSC2=N/C(=C\c3cccc(OCc4ccc(Cl)cc4)c3)C(=O)N2C)cc1 | > 10 µM | 15% | > 10 µM | 25% | > 10 µM | 17% | > 10 µM | 7% | > 10 µM | 33% | 20% | > 10 µM |  | 
 | O=C1/C(=C/c2cccc(OCCCCCCCCOc3ccc(Cl)cc3)c2)N=C2SCCCN12 | > 10 µM | -9% | > 10 µM | -3% | 1.15 µM | 124% | > 10 µM | -25% | > 10 µM | 43% | -18% | > 10 µM |  | 
 | O=C1NC(=S)N/C1=C\c1cccc(OCc2ccc(Cl)cc2)c1 | > 10 µM | 30% | > 10 µM | 19% | 33 µM | 165% | > 10 µM | -14% | 32.4 µM | 118% | 5% | > 10 µM |  | 
 | CC(C)c1ccc(OCCCCCCOc2cccc(/C=C3\N=C4SCCCN4C3=O)c2)cc1 | > 10 µM | 33% | > 10 µM | 46% | > 10 µM | 24% | > 10 µM | 15% | > 10 µM | 32% | 45% | > 10 µM |  | 
 | Cc1ccc(OCCCCCCOc2cccc(/C=C3\N=C4SCCCN4C3=O)c2)cc1 | > 10 µM | 9% | > 10 µM | 12% | 0.238 µM | 81% | > 10 µM | -12% | 2.91 µM | 86% | 35% | > 10 µM |  | 
 | O=C1NC(SCCc2ccccc2)=N/C1=C\c1cccc(OCc2ccc(Cl)cc2)c1 | > 10 µM | 18% | > 10 µM | 33% | 4.78 µM | 103% | > 10 µM | 2% | > 10 µM | 27% | 21% | > 10 µM |  | 
 | O=C1/C(=C/c2cccc(OCCCCCOc3ccc(Cl)cc3)c2)N=C2SCCCN12 | > 10 µM | 8% | > 10 µM |  | 1.14 µM | 123% | > 10 µM | -38% | 3.77 µM | 124% | -21% | > 10 µM |  | 
 | O=C1NC(SCc2ccccc2)=N/C1=C\c1cccc(OCc2ccc(Cl)cc2)c1 | > 10 µM | 11% | > 10 µM | 46% | > 10 µM | 3% | > 10 µM | -17% | > 10 µM | 17% | 21% | > 10 µM |  | 
 | O=C1NC(SCc2ccc(Br)cc2)=N/C1=C\c1cccc(OCc2ccc(Cl)cc2)c1 | > 10 µM | 31% | > 10 µM | 36% | 2.29 µM | 44% | > 10 µM | -11% | > 10 µM | 36% | 13% | > 10 µM |  | 
 | O=C1/C(=C/c2cccc(OCCCCCCCOc3ccc(Cl)cc3)c2)N=C2SCCCN12 | > 10 µM | 46% | > 10 µM | 15% | 1.71 µM | 97% | > 10 µM | 3% | > 10 µM | 16% | 34% | > 10 µM |  | 
73% | CSC1=NC(=O)/C(=C/c2cccc(OCc3ccc(Cl)cc3)c2)N1 | 2.21 µM |  | 0.591 µM |  | 13.8 µM | 71% | > 10 µM | 31% | > 10 µM | 47% | 18% | > 10 µM |  | 
 | CN1C(=N)NC(=O)/C1=C/c1cccc(OCc2ccc(Cl)cc2)c1 | > 10 µM | 43% | 22.8 µM |  | > 10 µM | 4% | > 10 µM | 6% | > 10 µM | -5% | 22% | > 10 µM |  | 
 | O=C1NC(=O)/C(=C/c2cccc(OCc3ccc(Cl)cc3)c2)S1 | 5.04 µM |  | > 10 µM | 41% | > 10 µM | -10% | > 10 µM | -1% | > 10 µM | -1% | 22% | > 10 µM |  | 67%
 | O=C1/C(=C/c2cccc(OCCOc3ccc(Cl)cc3)c2)N=C2SCCCN12 | > 10 µM | 21% | > 10 µM | -9% | 5 µM | 123% | > 10 µM | -10% | 10.1 µM | 99% | -20% | > 10 µM |  | 
 | O=C1/C(=C/c2cccc(OCCCCOc3ccc(Cl)cc3)c2)N=C2SCCCN12 | > 10 µM |  | > 10 µM | 3% | 2.38 µM | 116% | > 10 µM | -16% | > 10 µM | 26% | 11% | > 10 µM |  | 
 | O=C1/C(=C/c2cccc(OCCCCCCOc3cccc(Cl)c3)c2)N=C2SCCCN12 | > 10 µM | 33% | > 10 µM | 46% |  | 55% | > 10 µM | 0% | > 10 µM | 37% | 28% | > 10 µM |  | 
 | O=C1/C(=C/c2cccc(OCCc3ccccc3)c2)N=C2SCCCN12 | > 10 µM | 24% | > 10 µM | 19% | > 10 µM | 16% | > 10 µM | 8% | 29.3 µM | 130% | -42% | > 10 µM |  | 
 | O=C1/C(=C/c2cccc(OCCCCCCOc3ccccc3Cl)c2)N=C2SCCCN12 | > 10 µM | 19% | > 10 µM | 29% | > 10 µM | 41% | > 10 µM | 10% | 3.41 µM | 79% | 0% | > 10 µM |  | 
